{"source": "patent US20240360215A1", "about": "“ANTI-CD19 ANTIBODY IN THE TREATMENT OF CNS LYMPHOMA” (The Regents of the University of California, priority 2023, published 2024)", "type_in_all_cases": "in vivo, human", "key": {"[1]": {"test_system": "secondary CNS lymphoma", "experiment": "illustrative treatment of first patient (large-B cell lymphoma, CNS relapse), MRI follow-up", "settings": "for severe treatment-related toxicities requiring inpatient management: earlier therapies", "excerpt": "Staging documented concomitant right adrenal involvement. Treatment at an outside institution consisted of six cycles of high-dose methotrexate (HD-MTX) intercalated with rituximab, cyclophosphamide, adriamycin, vincristine, prednisone (R-CHOP) plus intrathecal cytarabine, also six cycles. At 7 months there was multifocal CNS progression and the patient was transferred to a tertiary care center where they received eight cycles of HD-MTX, six doses of temozolomide plus rituximab (MTR), consolidation with etoposide-ara-C (Soussain et al, J. Clin. Oncol 19:[…]; Rubenstein et al, J. Clin Oncol. 31:3061-8, 2013) followed by autologous stem cell transplantation and lenalidomide maintenance. However, at 6 months after transplantation, multifocal CNS progression was again evident on magnetic resonance imaging (MRI). This second relapse was treated with repeat HD-MTX (eight cycles) plus rituximab followed by focal irradiation to a refractory lesion in the right postcentral gyrus, followed by pomalidomide maintenance, resulting in a CNS response duration of nearly 2 years. A third isolated CNS relapse manifested by new multifocal lesions with mild left-to-right midline shift.\nIbrutinib was therefore discontinued and the patient continued on lenalidomide (10 mg/day), now co-administered with intravenous tafasitamab (12 mg/kg), without dexamethasone, following the schedule of the L-MIND study. […] The patient continues twice monthly infusion of tafasitamab, plus lenalidomide days 1-21, and remains in radiographic remission, both in brain and systemically, at 22 months since starting this combination."}, "[2]": {"test_system": "primary CNS lymphoma", "experiment": "illustrative treatment of second patient (multifocal primary CNS lymphoma, large B-cell type), MRI follow-up", "description": "At first relapse they were re-treated with MTR followed by lenalidomide maintenance (5 mg/day) with intermittent high-dose methotrexate/rituximab every 4 months, resulting in sustained disease control on MRI for 3 years. At progression on lenalidomide they were re-challenged with MTR but immediately experienced growth of new lesions in the left frontal lobe, centrum semiovale and splenium of the corpus callosum. […] However, the corpus callosal lesion was resistant. […] (For image, see, Rauschecker et al., Br J Haematol, 201:154-157, first published January 23 2023)."}, "[3]": {"test_system": "relapsed CNS lymphoma", "experiment": "phase I trial of tafasitamab plus lenalidomide in relapsed CNS lymphoma (NCT05351593)", "settings": "Patient 2; lenalidomide 15 mg/day, off study", "description": "This patient's disease previously progressed on lenalidomide monotherapy at a higher dose of 15 mg/day.\nThe role of tafasitamab in these cases is evident based on prior resistance to lenalidomide, pomalidomide and rituximab.\nThree were treated at the 10 mg lenalidomide dose level and one at the 15 mg lenalidomide dose level. […] The longest response duration was six months.\nIllustrative responses of patient 2 in this study are depicted in FIG. 1."}}, "note": "“Also recorded” adds a separate entry of the source."}
{"smiles": "C=CC(=O)N1CCC[C@@H](n2nc(-c3ccc(Oc4ccccc4)cc3)c3c(N)ncnc32)C1", "note": "[ibrutinib]", "values": [{"measurement": "severe treatment-related toxicities requiring inpatient management", "setting": "[1]", "value": "pancytopenia, gastrointestinal bleeding, and necrotizing gangrenous cholecystitis"}]}
{"smiles": "Nc1cccc2c1CN(C1CCC(=O)NC1=O)C2=O", "note": "(stereo not shown) [lenalidomide]", "values": [{"measurement": "time to multifocal CNS progression on MRI after transplantation", "setting": "[1]; lenalidomide maintenance after autologous stem cell transplantation", "value": 6, "unit": "months"}, {"measurement": "sustained disease control on MRI", "setting": "[2]; first relapse, MTR then lenalidomide maintenance 5 mg/day with intermittent high-dose methotrexate/rituximab every 4 months", "value": 3, "unit": "years"}, {"measurement": "response duration", "setting": "[2]; lenalidomide maintenance 5 mg/day, days 1-21, after complete response with MTR", "value": 17, "unit": "months"}, {"measurement": "disease response to earlier lenalidomide monotherapy", "setting": "[3]", "value": "progressed; also recorded: refractory"}]}
{"smiles": "Nc1cccc2c1C(=O)N(C1CCC(=O)NC1=O)C2=O", "note": "(stereo not shown) [pomalidomide]", "values": [{"measurement": "severe treatment-related toxicities requiring inpatient management", "setting": "[1]", "value": "two independent episodes of pneumonia, associated with respiratory syncytial virus and later, aspergillosis"}, {"measurement": "CNS response duration", "setting": "[1]; pomalidomide maintenance after repeat HD-MTX plus rituximab and focal irradiation", "value": "~2", "unit": "years"}]}
